Holding throughout (assay): relative viability (nuclei count vs DMSO), 5 days (fraction); higher = more cells survive
Compound in the assay “Ibrutinib + Navitoclax”: C=CC(=O)N1CCC[C@@H](n2nc(-c3ccc(Oc4ccccc4)cc3)c3c(N)ncnc32)C1 [Ibrutinib] + CC1(C)CCC(c2ccc(Cl)cc2)=C(CN2CCN(c3ccc(C(=O)NS(=O)(=O)c4ccc(N[C@H](CCN5CCOCC5)CSc5ccccc5)c(S(=O)(=O)C(F)(F)F)c4)cc3)CC2)C1 [Navitoclax] (partner 0.5 µM)
In outline: (§1)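 Five library-drug doses in √10 steps were combined with a fixed anchor-drug dose, or a single drug was given alone, by pin tool to lung cancer cell lines in 1536-well plates the day after seeding. Nuclei were stained and counted after 5 days. Relative viability is the nuclei count in treated wells over that in vehicle wells, taken as the median of duplicate plates.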

Compound in the assay “Ibrutinib + Vorinostat”: C=CC(=O)N1CCC[C@@H](n2nc(-c3ccc(Oc4ccccc4)cc3)c3c(N)ncnc32)C1 [Ibrutinib] + O=C(CCCCCCC(=O)Nc1ccccc1)NO [Vorinostat] (partner 1 µM)
The procedure, abridged:
as §1

Compound in the assay “BMX-IN-1 + Alpelisib”: C=CC(=O)Nc1cc(-n2c(=O)ccc3cnc4ccc(-c5ccc(NS(C)(=O)=O)cc5)cc4c32)ccc1C [BMX-IN-1] + Cc1nc(NC(=O)N2CCC[C@H]2C(N)=O)sc1-c1ccnc(C(C)(C)C(F)(F)F)c1 [Alpelisib] (partner 2 µM)
The procedure, abridged:
as §1

Compound in the assay “BMX-IN-1 + Bortezomib”: C=CC(=O)Nc1cc(-n2c(=O)ccc3cnc4ccc(-c5ccc(NS(C)(=O)=O)cc5)cc4c32)ccc1C [BMX-IN-1] + CC(C)C[C@H](NC(=O)[C@H](Cc1ccccc1)NC(=O)c1cnccn1)B(O)O [Bortezomib] (partner 0.002 µM)
The procedure, abridged: as §1

In the case of NCI-H1944, the relative viability with Ibrutinib + Navitoclax (first compound 0.005 µM) is 0.902; in the assay with Ibrutinib + Navitoclax (first compound 0.01581 µM) it was 0.985; in the assay with Ibrutinib + Navitoclax (first compound 0.05 µM), 0.811; in the assay with Ibrutinib + Navitoclax (first compound 0.1581 µM), 0.969; with Ibrutinib + Navitoclax (first compound 0.5 µM) it was 0.689; in the assay with Ibrutinib + Vorinostat (first compound 0.005 µM), 0.551. The relative viability in the assay with Ibrutinib + Vorinostat (first compound 0.01581 µM) was 0.47; with Ibrutinib + Vorinostat (first compound 0.05 µM) it was 0.517; with Ibrutinib + Vorinostat (first compound 0.1581 µM), 0.47; with Ibrutinib + Vorinostat (first compound 0.5 µM), 0.467; with BMX-IN-1 + Alpelisib (first compound 0.02 µM), 0.858; with BMX-IN-1 + Alpelisib (first compound 0.2 µM), 0.931. In addition, the relative viability with BMX-IN-1 + Alpelisib (first compound 0.6325 µM) worked out at 0.921; with BMX-IN-1 + Alpelisib (first compound 2 µM) it was 0.798.
In the case of NCI-H358, the relative viability amounted to 0.606 with Ibrutinib + Vorinostat (first compound 0.005 µM); 0.598 with Ibrutinib + Vorinostat (first compound 0.01581 µM); 0.809 with Ibrutinib + Vorinostat (first compound 0.1581 µM); 0.283 in the assay with Ibrutinib + Vorinostat (first compound 0.5 µM); 0.861 with BMX-IN-1 + Alpelisib (first compound 0.02 µM); 0.881 in the assay with BMX-IN-1 + Alpelisib (first compound 0.2 µM). The relative viability worked out at 0.937 with BMX-IN-1 + Alpelisib (first compound 0.6325 µM) and 0.81 with BMX-IN-1 + Alpelisib (first compound 2 µM).
Take NCI-H1299: the relative viability is 1.07 with Ibrutinib + Navitoclax (first compound 0.005 µM); 1.02 with Ibrutinib + Navitoclax (first compound 0.01581 µM); 1.11 with Ibrutinib + Navitoclax (first compound 0.05 µM); 1.07 with Ibrutinib + Navitoclax (first compound 0.1581 µM); 1.04 with Ibrutinib + Navitoclax (first compound 0.5 µM); 0.968 in the assay with BMX-IN-1 + Bortezomib (first compound 0.02 µM). Besides, the relative viability with BMX-IN-1 + Bortezomib (first compound 0.2 µM) worked out at 1.08; in the assay with BMX-IN-1 + Bortezomib (first compound 0.6325 µM), 1.13; with BMX-IN-1 + Bortezomib (first compound 2 µM), 0.97; with BMX-IN-1 + Alpelisib (first compound 0.02 µM), 1.14; in the assay with BMX-IN-1 + Alpelisib (first compound 0.2 µM) it was 1.17; with BMX-IN-1 + Alpelisib (first compound 0.6325 µM), 1.1. Further, the relative viability with BMX-IN-1 + Alpelisib (first compound 2 µM) was 1.16.
For NCI-H1648, the relative viability with Ibrutinib + Vorinostat (first compound 0.005 µM) was determined as 0.423; in the assay with Ibrutinib + Vorinostat (first compound 0.01581 µM), 0.441; in the assay with Ibrutinib + Vorinostat (first compound 0.05 µM), 0.402; with Ibrutinib + Vorinostat (first compound 0.1581 µM) it was 0.31; with Ibrutinib + Vorinostat (first compound 0.5 µM), 0.343.
Turning to NCI-H1703, the relative viability with Ibrutinib + Navitoclax (first compound 0.005 µM) worked out at 0.896; in the assay with Ibrutinib + Navitoclax (first compound 0.01581 µM), 0.96; with Ibrutinib + Navitoclax (first compound 0.05 µM), 1.05; in the assay with Ibrutinib + Navitoclax (first compound 0.1581 µM), 1.17; with Ibrutinib + Navitoclax (first compound 0.5 µM), 0.731; with BMX-IN-1 + Bortezomib (first compound 0.02 µM), 0.257. Further, the relative viability with BMX-IN-1 + Bortezomib (first compound 0.2 µM) was found to be 0.329; with BMX-IN-1 + Bortezomib (first compound 0.6325 µM), 0.337; with BMX-IN-1 + Bortezomib (first compound 2 µM), 0.242; with BMX-IN-1 + Alpelisib (first compound 0.02 µM) it was 0.359; with BMX-IN-1 + Alpelisib (first compound 0.2 µM), 0.254; with BMX-IN-1 + Alpelisib (first compound 0.6325 µM), 0.269. Moreover, in the assay with BMX-IN-1 + Alpelisib (first compound 2 µM), the relative viability came to 0.252.
Regarding NCI-H2170, the relative viability with Ibrutinib + Navitoclax (first compound 0.005 µM) was 0.377; with Ibrutinib + Navitoclax (first compound 0.01581 µM), 0.343; with Ibrutinib + Navitoclax (first compound 0.05 µM), 0.235; with Ibrutinib + Navitoclax (first compound 0.1581 µM), 0.527; with Ibrutinib + Navitoclax (first compound 0.5 µM), 0.195; in the assay with Ibrutinib + Vorinostat (first compound 0.005 µM), 0.703. The relative viability with Ibrutinib + Vorinostat (first compound 0.01581 µM) turned out to be 0.656; with Ibrutinib + Vorinostat (first compound 0.05 µM) it was 0.396; with Ibrutinib + Vorinostat (first compound 0.1581 µM), 0.831; in the assay with Ibrutinib + Vorinostat (first compound 0.5 µM) it was 0.181; in the assay with BMX-IN-1 + Alpelisib (first compound 0.02 µM), 0.91; in the assay with BMX-IN-1 + Alpelisib (first compound 0.2 µM), 0.859. The relative viability with BMX-IN-1 + Alpelisib (first compound 0.6325 µM) amounted to 0.921; with BMX-IN-1 + Alpelisib (first compound 2 µM) it was 0.821.
As for NCI-H2342, the relative viability in the assay with Ibrutinib + Vorinostat (first compound 0.005 µM) worked out at 0.495; with Ibrutinib + Vorinostat (first compound 0.01581 µM), 0.783; with Ibrutinib + Vorinostat (first compound 0.05 µM) it was 0.754; in the assay with Ibrutinib + Vorinostat (first compound 0.1581 µM), 0.76; with Ibrutinib + Vorinostat (first compound 0.5 µM), 0.731.
In the same order, the values of SW 900 are 0.343, 0.43, 0.488, 0.4 and 0.527.
Consider ABC-1, for which the relative viability with Ibrutinib + Vorinostat (first compound 0.005 µM) turned out to be 0.795; with Ibrutinib + Vorinostat (first compound 0.01581 µM) it was 1.05; with Ibrutinib + Vorinostat (first compound 0.5 µM), 1.63; with BMX-IN-1 + Bortezomib (first compound 0.02 µM), 0.34; with BMX-IN-1 + Bortezomib (first compound 0.2 µM), 0.302; in the assay with BMX-IN-1 + Bortezomib (first compound 0.6325 µM), 0.244. The relative viability amounted to 0.306 in the assay with BMX-IN-1 + Bortezomib (first compound 2 µM); 0.98 with BMX-IN-1 + Alpelisib (first compound 0.02 µM); 1.2 in the assay with BMX-IN-1 + Alpelisib (first compound 0.2 µM); 1.22 with BMX-IN-1 + Alpelisib (first compound 0.6325 µM); 1.12 with BMX-IN-1 + Alpelisib (first compound 2 µM).
Consider ChaGo-K-1, for which the relative viability amounted to 0.506 with Ibrutinib + Navitoclax (first compound 0.005 µM); 1.12 with Ibrutinib + Navitoclax (first compound 0.01581 µM); 0.933 with Ibrutinib + Navitoclax (first compound 0.05 µM); 1.19 with Ibrutinib + Navitoclax (first compound 0.5 µM); 0.752 with Ibrutinib + Vorinostat (first compound 0.005 µM); 0.766 with Ibrutinib + Vorinostat (first compound 0.01581 µM). Moreover, the relative viability with Ibrutinib + Vorinostat (first compound 0.05 µM) came to 0.688; in the assay with Ibrutinib + Vorinostat (first compound 0.1581 µM), 0.708; with Ibrutinib + Vorinostat (first compound 0.5 µM), 0.75; with BMX-IN-1 + Bortezomib (first compound 0.02 µM) it was 1.08; with BMX-IN-1 + Bortezomib (first compound 0.2 µM), 1.1; with BMX-IN-1 + Bortezomib (first compound 0.6325 µM), 1.31. The relative viability in the assay with BMX-IN-1 + Bortezomib (first compound 2 µM) was determined as 1.17.
As to NCI-H1395, the relative viability was found to be 1.07 with Ibrutinib + Navitoclax (first compound 0.005 µM); 1.15 with Ibrutinib + Navitoclax (first compound 0.05 µM); 1.54 in the assay with Ibrutinib + Navitoclax (first compound 0.1581 µM); 1.17 with Ibrutinib + Navitoclax (first compound 0.5 µM); 0.529 in the assay with Ibrutinib + Vorinostat (first compound 0.005 µM); 0.79 in the assay with Ibrutinib + Vorinostat (first compound 0.01581 µM). In addition, the relative viability in the assay with Ibrutinib + Vorinostat (first compound 0.05 µM) turned out to be 0.642; with Ibrutinib + Vorinostat (first compound 0.1581 µM), 0.516; with Ibrutinib + Vorinostat (first compound 0.5 µM) it was 0.798; with BMX-IN-1 + Alpelisib (first compound 0.02 µM), 1.07; with BMX-IN-1 + Alpelisib (first compound 0.2 µM), 1.05; with BMX-IN-1 + Alpelisib (first compound 0.6325 µM), 1.15. For the same cell line, the relative viability in the assay with BMX-IN-1 + Alpelisib (first compound 2 µM) is 0.962.
Take NCI-H1792: the relative viability with Ibrutinib + Navitoclax (first compound 0.005 µM) came out at 0.669; with Ibrutinib + Navitoclax (first compound 0.01581 µM), 0.694; with Ibrutinib + Navitoclax (first compound 0.05 µM), 0.69; with Ibrutinib + Navitoclax (first compound 0.1581 µM), 0.474; with Ibrutinib + Navitoclax (first compound 0.5 µM), 0.599; with BMX-IN-1 + Bortezomib (first compound 0.02 µM) it was 1.25. For the same cell line, the relative viability in the assay with BMX-IN-1 + Bortezomib (first compound 0.2 µM) came to 1.4; with BMX-IN-1 + Bortezomib (first compound 0.6325 µM), 0.912; in the assay with BMX-IN-1 + Bortezomib (first compound 2 µM) it was 0.956; with BMX-IN-1 + Alpelisib (first compound 0.02 µM), 0.585; with BMX-IN-1 + Alpelisib (first compound 0.2 µM), 0.473; in the assay with BMX-IN-1 + Alpelisib (first compound 0.6325 µM) it was 0.579. The relative viability in the assay with BMX-IN-1 + Alpelisib (first compound 2 µM) was 0.684.

The values are drawn from the supplement of paper PMC10307832.
